Measurements published in patent US20080045519A1, “Method to Fight Against Insects Including the Use of Hydrocarbon Compounds” (priority 2004, published 2008).
Values joined by “and” are separate entries in the source; they are usually repeats but may differ in a detail not shown here. Equal values may be shown once.

System: worker termites of Reticulitermes santonensis type
Experiment: Insecticidal activity of fipronil plus hydrocarbon compound mixture, termite mortality after 3 days (Example 4)
Type: in vivo
Settings: matrix sprayed with hydrocarbon compound mixture (Mixture B), 100 termites
Experimental: The experiment is conducted in a LAB test box (6 cm×9 cm) containing on the bottom 2 mm of wet Fontainebleau sand and is repeated five times. In the box, a matrix is placed, consisting of a foam cube in which holes are made with a diameter of 5 mm, over which a small piece of poplar wood is placed (1 cm×2 cm×2 cm). The foam is impregnated with cold fipronil. The matrix is sprayed with a hydrocarbon compound mixture including 11.4% of 5-methylpentacosane; 36.3% of 11-methylpentacosane; 19.6% of (Z)-9-pentacosene; 27.7% of n-pentacosane, and 5% of n-hexacosane. Only 4 faces are sprayed. The top and the bottom of the matrix are not treated.
In the box, an untreated piece of poplar wood is also placed in order to recreate a natural situation as exactly as possible.
100 worker termites of Reticulitermes santonensis type are placed in the box and their mortality after 3 days is evaluated. Various concentrations of cold fipronil are tested: 0.5 ppm, 1 ppm, 2 ppm, 5 ppm, and 7 ppm.

## N#Cc1nn(-c2c(Cl)cc(C(F)(F)F)cc2Cl)c(N)c1[S+]([O-])C(F)(F)F (stereo not drawn) [Fipronil, fipronil]
Fipronil at 0.5 ppm, average of 5 trials
  Number of termites dead after 3 days: 0
Fipronil at 0.5 ppm, single trials
  Number of termites dead after 3 days: 0
Fipronil at 1 ppm, average of 5 trials
  Number of termites dead after 3 days: 0
Fipronil at 1 ppm, single trials
  Number of termites dead after 3 days: 0
Fipronil at 2 ppm, average of 5 trials
  Number of termites dead after 3 days: 20
Fipronil at 5 ppm, average of 5 trials
  Number of termites dead after 3 days: 50.4
Fipronil at 5 ppm, single trials
  Number of termites dead after 3 days: 42 and 45 and 59 and 56 and 50
Fipronil at 7 ppm, average of 5 trials
  Number of termites dead after 3 days: 50.8
Fipronil at 7 ppm, single trials
  Number of termites dead after 3 days: 60 and 42 and 55 and 34 and 63
